ChEMBL document CHEMBL3585315, “Discovery of mammalian target of rapamycin (mTOR) kinase inhibitor CC-223” (J Med Chem, 2015)

How the values were obtained:
[1] = biological target: Phosphatidylinositol 4,5-bisphosphate 3-kinase catalytic subunit alpha isoform (Homo sapiens, UniProt P42336); experiment: Inhibition of PI3K-alpha (unknown origin) by mobility shift assay
[2] = Clearance in rat at 2 mg/kg, iv; format: ADME, organism-based; conditions: in vivo
[3] = Tmax in rat at 5 mg/kg, po; format: ADME, organism-based; conditions: in vivo
Mus musculus [4] = organism: Mus musculus; experiment: animal or person; conditions: PC-3, po, 8 h, read-out: INH
PC-3 [5] = conditions: Homo sapiens
cells = conditions: Homo sapiens, PC-3, 1 h
Mus musculus [6] = organism: Mus musculus; experiment: animal or person; conditions: PC-3, po, 4 h, read-out: INH
[7] = Metabolic stability in rat S9 fraction assessed as compound remaining measured at 60 mins; format: ADME; conditions: read-out: Stability
PC-3 [8] = conditions: Homo sapiens, TDE = time-dependent effect
Mus musculus [9] = organism: Mus musculus; experiment: animal or person; conditions: PC-3, po, 8 h, read-out: INH; remark: listed apart in the source
Mus musculus [10] = organism: Mus musculus; experiment: animal or person; conditions: PC-3, po, 2 h, read-out: INH
Mus musculus [11] = organism: Mus musculus; experiment: animal or person; conditions: PC-3, po, 24 h, read-out: INH
[12] = AUC (0 to infinity) in rat at 5 mg/kg, po; format: ADME, organism-based; design: dose 5 mg/kg, time infinity, route oral; conditions: in vivo
[13] = Oral bioavailability in rat at 5 mg/kg; format: ADME, organism-based; conditions: in vivo
Mus musculus [14] = organism: Mus musculus; experiment: animal or person; conditions: PC-3, po, 24 h, read-out: INH; remark: listed apart in the source
Mus musculus [15] = organism: Mus musculus; experiment: animal or person; conditions: PC-3, po, 4 h, read-out: INH; remark: listed apart in the source
Mus musculus [16] = organism: Mus musculus; experiment: animal or person; conditions: PC-3, po, 2 h, read-out: INH; remark: listed apart in the source
[17] = Cmax in rat at 5 mg/kg, po; format: ADME, organism-based; design: dose 5 mg/kg, route oral; conditions: in vivo
PC-3 [18] = experiment: Antitumor activity against human PC3 cells xenografted in mouse assessed as tumor volume reduction at 50 mg/kg, po qd for 21 days relative to control; format: functional; design: scale not given: the % may be the effect or the level left
PC-3 [19] = conditions: Homo sapiens, TDE = time-dependent effect; remark: listed apart in the source
[20] = Genotoxicity in mouse erythrocytes by micronucleus test; format: toxicity, cell-based; conditions: erythrocyte
[21] = biological target: Vascular endothelial growth factor receptor 3 (Homo sapiens, UniProt P35916); experiment: Inhibition of Flt4 (unknown origin)
Salmonella typhi = experiment: Mutagenicity in Salmonella typhi by Ames test; format: toxicity, organism-based; conditions: salmonella enterica subsp. enterica serovar […]
[22] = Inhibition of CYP450 (unknown origin) up to 10 uM; format: ADME; conditions: human
PC-3 [23] = experiment: Antitumor activity against human PC3 cells xenografted in mouse assessed as tumor volume reduction at 25 mg/kg, po qd for 21 days relative to control; format: functional; design: scale not given: the % may be the effect or the level left

Chain of Phosphatidylinositol 4,5-bisphosphate 3-kinase catalytic subunit alpha isoform (P42336 whole entry, canonical isoform): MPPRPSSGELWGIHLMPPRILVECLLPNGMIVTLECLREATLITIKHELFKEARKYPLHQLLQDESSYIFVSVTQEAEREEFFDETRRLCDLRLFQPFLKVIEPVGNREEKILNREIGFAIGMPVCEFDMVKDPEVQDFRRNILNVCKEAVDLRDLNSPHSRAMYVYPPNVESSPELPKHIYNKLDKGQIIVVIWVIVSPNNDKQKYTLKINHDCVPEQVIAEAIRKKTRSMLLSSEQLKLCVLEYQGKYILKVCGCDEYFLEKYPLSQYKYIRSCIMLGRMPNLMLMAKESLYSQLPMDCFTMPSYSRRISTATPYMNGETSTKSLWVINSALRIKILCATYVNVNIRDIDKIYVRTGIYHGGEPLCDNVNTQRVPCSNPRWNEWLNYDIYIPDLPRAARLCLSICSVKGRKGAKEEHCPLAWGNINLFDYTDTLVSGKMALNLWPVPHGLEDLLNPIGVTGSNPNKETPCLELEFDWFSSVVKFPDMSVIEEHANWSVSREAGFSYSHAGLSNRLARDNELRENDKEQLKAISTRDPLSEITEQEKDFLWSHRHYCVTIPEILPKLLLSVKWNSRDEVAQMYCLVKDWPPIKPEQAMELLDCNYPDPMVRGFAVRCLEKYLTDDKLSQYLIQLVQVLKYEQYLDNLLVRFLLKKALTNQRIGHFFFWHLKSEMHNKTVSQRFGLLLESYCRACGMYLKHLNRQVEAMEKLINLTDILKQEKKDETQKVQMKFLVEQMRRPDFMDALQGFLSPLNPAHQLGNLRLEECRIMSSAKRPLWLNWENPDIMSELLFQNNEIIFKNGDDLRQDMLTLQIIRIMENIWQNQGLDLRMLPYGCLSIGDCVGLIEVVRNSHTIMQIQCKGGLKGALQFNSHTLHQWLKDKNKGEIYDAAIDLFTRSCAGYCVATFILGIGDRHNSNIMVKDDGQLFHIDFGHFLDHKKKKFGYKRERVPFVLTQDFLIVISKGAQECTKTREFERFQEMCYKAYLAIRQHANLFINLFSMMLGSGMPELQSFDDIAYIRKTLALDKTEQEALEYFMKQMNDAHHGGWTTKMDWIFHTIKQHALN
Chain of Vascular endothelial growth factor receptor 3 (P35916 whole entry): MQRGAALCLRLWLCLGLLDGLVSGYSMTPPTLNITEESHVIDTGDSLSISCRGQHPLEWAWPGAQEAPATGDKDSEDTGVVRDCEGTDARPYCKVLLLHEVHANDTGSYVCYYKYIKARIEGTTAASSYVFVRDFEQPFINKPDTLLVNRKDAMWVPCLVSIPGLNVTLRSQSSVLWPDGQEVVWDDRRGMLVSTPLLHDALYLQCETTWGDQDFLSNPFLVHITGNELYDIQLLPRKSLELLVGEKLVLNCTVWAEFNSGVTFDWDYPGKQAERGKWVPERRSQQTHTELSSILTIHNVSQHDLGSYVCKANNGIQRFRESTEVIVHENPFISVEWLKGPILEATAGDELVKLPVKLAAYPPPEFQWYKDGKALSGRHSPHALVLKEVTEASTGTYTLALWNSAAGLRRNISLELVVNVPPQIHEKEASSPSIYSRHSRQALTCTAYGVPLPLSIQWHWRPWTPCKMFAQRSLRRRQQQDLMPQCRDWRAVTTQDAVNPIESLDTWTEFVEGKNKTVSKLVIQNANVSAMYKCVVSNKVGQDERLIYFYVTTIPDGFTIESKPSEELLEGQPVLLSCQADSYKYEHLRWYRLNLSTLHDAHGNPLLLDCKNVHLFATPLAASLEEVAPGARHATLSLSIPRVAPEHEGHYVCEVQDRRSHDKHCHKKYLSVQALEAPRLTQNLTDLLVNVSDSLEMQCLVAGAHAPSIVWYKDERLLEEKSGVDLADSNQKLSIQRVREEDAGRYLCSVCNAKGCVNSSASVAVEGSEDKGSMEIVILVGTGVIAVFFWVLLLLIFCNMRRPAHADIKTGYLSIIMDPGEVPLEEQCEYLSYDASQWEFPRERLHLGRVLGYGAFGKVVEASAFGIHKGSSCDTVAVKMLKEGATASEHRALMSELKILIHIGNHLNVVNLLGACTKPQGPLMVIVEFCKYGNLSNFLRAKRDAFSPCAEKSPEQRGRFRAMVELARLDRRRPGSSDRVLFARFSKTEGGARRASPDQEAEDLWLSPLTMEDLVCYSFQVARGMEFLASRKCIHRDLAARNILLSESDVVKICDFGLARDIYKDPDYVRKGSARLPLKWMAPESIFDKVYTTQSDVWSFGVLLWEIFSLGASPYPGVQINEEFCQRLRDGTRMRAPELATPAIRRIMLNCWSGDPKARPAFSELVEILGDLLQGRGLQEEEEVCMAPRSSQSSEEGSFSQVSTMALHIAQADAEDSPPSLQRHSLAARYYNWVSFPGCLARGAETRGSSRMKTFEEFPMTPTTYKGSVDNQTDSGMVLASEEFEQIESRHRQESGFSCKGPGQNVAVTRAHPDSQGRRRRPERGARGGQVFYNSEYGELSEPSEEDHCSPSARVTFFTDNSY

Row | Compound | IC50 [1] [nM] | inhibition in vivo at 100 mg/kg (Mus musculus [4]) [%] | IC50 (cells) [nM] | inhibition in vivo at 100 mg/kg (Mus musculus [6]) [%] | remaining at 1 h [7] [%] | inhibition in vivo at 100 mg/kg (Mus musculus [9]) [%] | inhibition in vivo at 100 mg/kg (Mus musculus [11]) [%] | AUC(0-inf) [12] [µM·h] | inhibition in vivo at 100 mg/kg (Mus musculus [14]) [%] | inhibition in vivo at 100 mg/kg (Mus musculus [15]) [%] | Cmax [17] [nM] | also measured
1 | COCCN1CC(=O)Nc2ncc(-c3ccc(C(C)(C)O)nc3)nc21 | 10500 | – | – | – | – | – | – | – | – | – | – | –
2 | CO[C@H]1CC[C@@H](CN2C(=O)CNc3ncc(-c4ccc(C(C)(C)O)nc4)nc32)CC1 | 2500 | – | – | – | – | – | – | – | – | – | – | –
3 | Cc1cc(-c2nc[nH]n2)ccc1-c1cnc2c(n1)N(CCC1CCOCC1)C(=O)CN2 | 120 | – | – | – | – | – | – | – | – | – | – | –
4 | CC(C)(O)c1ccc(-c2cnc3c(n2)N(CCC2CCOCC2)C(=O)CN3)cn1 | – | 78 | 90 | 80 | 73 | 88 | 69 | 14 | 59 | 63 | 1700 | clearance [2]: 9 mL/min/kg; Tmax [3]: 36 min; TGI (PC-3 [5]): Dose-dependent effect; TGI (PC-3 [8]): tde; inhibition in vivo at 100 mg/kg (Mus musculus [10]): 71%; bioavailability [13]: 58%; inhibition in vivo at 100 mg/kg (Mus musculus [16]): 82%; Activity (PC-3 [18]): 59%
5 | COCCN1C(=O)CNc2ncc(-c3ccc(C(C)(C)O)nc3)nc21 | 6200 | 84 | 610 | 82 | 89 | 91 | 77 | 29 | 91 | 87 | 5600 | –
6 | O=C1CNc2ncc(-c3ccc(-c4ncn[nH]4)cc3)nc2N1CCC1CCOCC1 | 100 | – | – | – | 48 | – | – | – | – | – | – | –
7 | CO[C@H]1CC[C@H](N2C(=O)CNc3ncc(-c4ccc(C(C)(C)O)nc4)nc32)CC1 [ONATASERTIB] | – | 82 | – | 91 | – | 92 | 86 | 26 | 91 | 80 | 2900 | TGI (PC-3 [19]): tde; clearance [2]: 4.9 mL/min/kg; Activity [20]: Non-toxic; IC50 [21]: 651 nM; TGI (PC-3 [5]): Dose-dependent effect; Activity (Salmonella typhi): Non-toxic; bioavailability [13]: 59%; inhibition (INH) [22]: Not Active; Activity (PC-3 [23]): 87%
8 | CO[C@H]1CC[C@H](CN2CC(=O)Nc3ncc(-c4ccc(C(C)(C)O)nc4)nc32)CC1 | 20200 | 55 | 160 | 80 | 77 | 64 | 0 | 7.25 | 0 | 55 | 700 | –
9 | CC(C)(O)c1ccc(-c2cnc3c(n2)N([C@H]2CC[C@@H](O)CC2)C(=O)CN3)cn1 | 2800 | – | – | – | – | – | – | – | – | – | – | –
10 | CC(C)(O)c1ccc(-c2cnc3c(n2)N(CC2CCOCC2)C(=O)CN3)cn1 | 3800 | 81 | 130 | 93 | 83 | 94 | 80 | 9.9 | 91 | 86 | 1600 | –
11 | CO[C@H]1CC[C@@H](N2CC(=O)Nc3ncc(-c4ccc(C(C)(C)O)nc4)nc32)CC1 | 11100 | 59 | 330 | 54 | – | 52 | 45 | 26.6 | 70 | 34 | 2770 | inhibition in vivo at 100 mg/kg (Mus musculus [10]): 80%; inhibition in vivo at 100 mg/kg (Mus musculus [16]): 72%
12 | O=C1CN(CCC2CCOCC2)c2nc(-c3ccc(-c4nc[nH]n4)nc3)cnc2N1 | 1600 | – | – | – | – | – | – | – | – | – | – | –
